Measured values taken from paper PMC5458078, “Global mapping of CARM1 substrates defines enzyme specificity and substrate recognition” (Nature Communications, 2017).

Assays:
MCF7 cells = experiment: Quantitative nanoLC-MS/MS (TMT) of ADMA-containing peptides, CARM1 KO vs parental; format: cell-based, human; design: Fold change KO/WT: scale not given here
MCF7 CARM1 KO cells = experiment: Quantitative MS of ADMA-containing peptides in MCF7 CARM1 KO cells expressing CARM1 28-608 or CARM1 140-608, and in CARM1 KO; format: cell-based, human
[1] = ADMA-containing peptide, CARM1 knockout (KO) vs wild type (WT) MCF7 cells, 6-plex TMT experiment #1, three biological replicates each, sheet "MCF7"
[2] = difference of log2 means, CARM1 140-608 vs WT
[3] = difference of log2 means, KO vs WT
[4] = MCF7, CARM1 KO (KO1-KO3) vs wild type (WT1-WT3)
[5] = CARM1 140-608 vs WT, mean of 3 replicates (log2 scale)
[6] = KO vs WT, mean of 3 replicates (log2 scale)
[7] = MCF7, CARM1 KO vs WT, three biological replicates each
[8] = CARM1 140-608 vs WT, mean of 3 replicates, log2
[9] = KO vs WT, mean of 3 replicates, log2
[10] = CARM1 KO vs wild type MCF7 cells, 3 biological replicates each
[11] = CARM1 140-608 versus WT, difference of mean log2 values
[12] = CARM1 KO versus WT, difference of mean log2 values
[13] = ratio on log2 scale, mean of 3 replicates
[14] = MCF7, CARM1 knockout vs wild type, n = 3 each
[15] = mean, CARM1 140-608 versus WT (log2 scale)
[16] = mean, CARM1 KO versus WT (log2 scale)
[17] = CARM1 140-608 versus WT, mean of three replicates (log2)
[18] = KO versus WT, mean of three replicates (log2)
[19] = MCF7 CARM1 knockout vs wild type, 3 biological replicates each, values are on log2 scale
[20] = ADMA-containing peptide, MCF7, CARM1 knockout (KO1-3) vs wild type (WT1-3), TMT 6-plex experiment #1
[21] = log2 scale ratio, mean of n = 3

## AVCSTPLSSSLLGPPGTSALPrLSR
MCF7 cells; [1]
  Fold change KO/WT: -3.255
MCF7 CARM1 KO cells; [2]
  CARM1 140-608/WT: -2.222
MCF7 CARM1 KO cells; [3]
  KO/WT: -3.255

## MGLLSPSGIGGVSPrHALTSPSLGGQGR
MCF7 cells; [4]
  Fold change KO/WT: -1.616
MCF7 CARM1 KO cells; [5]
  CARM1 140-608/WT: -0.809
MCF7 CARM1 KO cells; [6]
  KO/WT: -1.616

## TATVTIrPNTSGSGGTTSNSQVITGPQIrPGMTVIRTPLQQSTLGK
MCF7 cells; [7]
  Fold change KO/WT: -1.078
MCF7 CARM1 KO cells; [8]
  CARM1 140-608/WT: 2.998
MCF7 CARM1 KO cells; [9]
  KO/WT: -1.078

## GPLPPPRPTPrPPVPPrGPLrGPLPQ
MCF7 cells; [4]
  Fold change KO/WT: -0.7434
MCF7 CARM1 KO cells; [5]
  CARM1 140-608/WT: 0.8489
MCF7 CARM1 KO cells; [6]
  KO/WT: -0.7434

## QVHPFHVYPQPGMQrFR
MCF7 cells; [7]
  Fold change KO/WT: -0.1867
MCF7 CARM1 KO cells; [8]
  CARM1 140-608/WT: -0.2745
MCF7 CARM1 KO cells; [9]
  KO/WT: -0.1867

## YPLPPPSGrYNWN
MCF7 cells; [10]
  Fold change KO/WT: -1.371
MCF7 CARM1 KO cells; [11]
  CARM1 140-608/WT: -1.592
MCF7 CARM1 KO cells; [12]
  KO/WT: -1.5401

## TATVTIrPNTSGSGGTTSNSQVITGPQIrPGMTVIrTPLQQSTLGK
MCF7 cells; [7]
  Fold change KO/WT: -2.17
MCF7 CARM1 KO cells; [8]
  CARM1 140-608/WT: 1.9774
MCF7 CARM1 KO cells; [9]
  KO/WT: -1.958

## GALSISAPLGDFrHTLHVGR
MCF7 cells; [7]
  Fold change KO/WT: -1.149
MCF7 CARM1 KO cells; [13]
  CARM1 140-608/WT: -1.004
  KO/WT: -1.149

## RGPLSQNGSFGPSPVSGGECSPPLTVEPPVrPLSATLNR
MCF7 cells; [1]
  Fold change KO/WT: -2.59
MCF7 CARM1 KO cells; [2]
  CARM1 140-608/WT: -1.692
MCF7 CARM1 KO cells; [3]
  KO/WT: -2.59

## APPGGLHAPrLSLEGAAR
MCF7 cells; [7]
  Fold change KO/WT: -2.121
MCF7 CARM1 KO cells; [8]
  CARM1 140-608/WT: -1.8169
MCF7 CARM1 KO cells; [9]
  KO/WT: -2.946

## LSAETWDLLrLPLER
MCF7 cells; [14]
  Fold change KO/WT: -3.314
MCF7 CARM1 KO cells; [15]
  CARM1 140-608/WT: -2.21
MCF7 CARM1 KO cells; [16]
  KO/WT: -3.314

## IPGIPrHSGPQYSMMQPHLQR
MCF7 cells; [10]
  Fold change KO/WT: -0.5283
MCF7 CARM1 KO cells; [11]
  CARM1 140-608/WT: 1.323
MCF7 CARM1 KO cells; [12]
  KO/WT: -0.1608

## LrQQLQAK
MCF7 cells; [1]
  Fold change KO/WT: -3.626
MCF7 CARM1 KO cells; [2]
  CARM1 140-608/WT: -1.5575
MCF7 CARM1 KO cells; [3]
  KO/WT: -2.723

## LHPQLHrAPIR
MCF7 cells; [1]
  Fold change KO/WT: 1.076
MCF7 CARM1 KO cells; [17]
  CARM1 140-608/WT: -0.07051
MCF7 CARM1 KO cells; [18]
  KO/WT: 1.076

## HSAYSYCGrGFYPQYGALETrGGFNPR
MCF7 cells; [19]
  Fold change KO/WT: -0.3157
MCF7 CARM1 KO cells; [15]
  CARM1 140-608/WT: -0.5986
MCF7 CARM1 KO cells; [16]
  KO/WT: -0.0486

## AMLPGSPLFTrAPPPK
MCF7 cells; [1]
  Fold change KO/WT: -3.62
MCF7 CARM1 KO cells; [17]
  CARM1 140-608/WT: -2.658
MCF7 CARM1 KO cells; [18]
  KO/WT: -3.62

## APESPPSADPALVAGPAEEAECPPPRQPQPAQNVLAAPrLR
MCF7 cells; [1]
  Fold change KO/WT: -1.431
MCF7 CARM1 KO cells; [17]
  CARM1 140-608/WT: -0.5501
MCF7 CARM1 KO cells; [18]
  KO/WT: -1.431

## EGAEGVNGGEESVNLNDADEGFSSGASLSSQPIGTKPSSSSQrGSLR
MCF7 cells; [14]
  Fold change KO/WT: -0.04765
MCF7 CARM1 KO cells; [13]
  CARM1 140-608/WT: -0.2709
  KO/WT: -0.04765

## VrINLQQQPPPLQIK
MCF7 cells; [20]
  Fold change KO/WT: -3.801
MCF7 CARM1 KO cells; [21]
  CARM1 140-608/WT: -1.463
  KO/WT: -4.329

## SHGYKPHFVPNFNGPNAIrQFQPNQINENWK
MCF7 cells; [14]
  Fold change KO/WT: -2.033
MCF7 CARM1 KO cells; [13]
  CARM1 140-608/WT: -1.237
  KO/WT: -2.033

## FLQPrLAPNQPPPPLIrPALAAPR
MCF7 cells; [4]
  Fold change KO/WT: -3.157
MCF7 CARM1 KO cells; [5]
  CARM1 140-608/WT: 0.3049
MCF7 CARM1 KO cells; [6]
  KO/WT: -2.801

## ErLALAGPQLrPEMSYPDR
MCF7 cells; [4]
  Fold change KO/WT: -2.989
MCF7 CARM1 KO cells; [5]
  CARM1 140-608/WT: -2.2623
MCF7 CARM1 KO cells; [6]
  KO/WT: -2.989

## QPQPAQNVLAAPrLR
MCF7 cells; [1]
  Fold change KO/WT: -1.672
MCF7 CARM1 KO cells; [17]
  CARM1 140-608/WT: -0.6318
MCF7 CARM1 KO cells; [18]
  KO/WT: -1.672

## DLPLHPrGFLPGHAPFrPLGSLGPrEYFIPGTrLPPPTHGPQEYPPPPAVR
MCF7 cells; [1]
  Fold change KO/WT: -1.638
MCF7 CARM1 KO cells; [2]
  CARM1 140-608/WT: -0.2675
MCF7 CARM1 KO cells; [3]
  KO/WT: -2.443

## STNPELPPrLGPVPSGLSQK
MCF7 cells; [14]
  Fold change KO/WT: -2.804
MCF7 CARM1 KO cells; [13]
  CARM1 140-608/WT: -2.1
  KO/WT: -2.804

## ATSPrPrAFDGAGSSLGrAPSPrPGPGPLrQQGPPTPFDFLGR
MCF7 cells; [4]
  Fold change KO/WT: -2.635
MCF7 CARM1 KO cells; [17]
  CARM1 140-608/WT: -2.092
MCF7 CARM1 KO cells; [18]
  KO/WT: -2.635

## TYQASSAAFrYTAGTPYK
MCF7 cells; [14]
  Fold change KO/WT: -4.425
MCF7 CARM1 KO cells; [13]
  CARM1 140-608/WT: -4.171
  KO/WT: -4.425

## GrGFAGVCGFGGPYGETVATGPYrAFR
MCF7 cells; [14]
  Fold change KO/WT: -1.965
MCF7 CARM1 KO cells; [13]
  CARM1 140-608/WT: -1.219
  KO/WT: -1.965

## SVGQGYSVGQSMrLGLGGNAPVSIPQQSQSVK
MCF7 cells; [7]
  Fold change KO/WT: -2.576
MCF7 CARM1 KO cells; [8]
  CARM1 140-608/WT: -2.098
MCF7 CARM1 KO cells; [9]
  KO/WT: -2.576

## LQGLQGSGGrGGGLR
MCF7 cells; [19]
  Fold change KO/WT: -0.266
MCF7 CARM1 KO cells; [15]
  CARM1 140-608/WT: 0.05748
MCF7 CARM1 KO cells; [16]
  KO/WT: -0.4598

## VGVPTAVQNLAPrAAVAAAAPrAVAPYK
MCF7 cells; [1]
  Fold change KO/WT: -3.907
MCF7 CARM1 KO cells; [17]
  CARM1 140-608/WT: 0.2214
MCF7 CARM1 KO cells; [18]
  KO/WT: -3.003

## NHPrVYQNR
MCF7 cells; [20]
  Fold change KO/WT: 0.9632
MCF7 CARM1 KO cells; [21]
  CARM1 140-608/WT: -0.04969
  KO/WT: 0.9632

## VrATSVLPrYGPPCLFK
MCF7 cells; [20]
  Fold change KO/WT: -2.652
MCF7 CARM1 KO cells; [21]
  CARM1 140-608/WT: -1.769
  KO/WT: -2.652

## NPHTLGLSrYHPYGK
MCF7 cells; [10]
  Fold change KO/WT: -0.4466
MCF7 CARM1 KO cells; [11]
  CARM1 140-608/WT: -0.4138
MCF7 CARM1 KO cells; [12]
  KO/WT: -0.4466
